{"source": "paper PMC5218480", "about": "(PLoS ONE, 2017)", "test_system": "MV-4-11 cells", "assay": "Gene expression microarray analysis (Affymetrix PrimeView) and GSEA", "format": "cell-based, human", "set-up": "RFU PODN (11730768_x_at) / Fold change /veh PODN (11730768_x_at) / RFU LINC00158 (11744669_a_at) / Fold change /veh LINC00158 (11744669_a_at) / RFU DUSP10 (11751237_a_at) / Fold change /veh DUSP10 (11751237_a_at) / RFU ID3 (11757404_x_at) / Fold change /veh ID3 (11757404_x_at) / RFU PLEKHG5 (11737974_s_at) / Fold change /veh PLEKHG5 (11737974_s_at) / RFU LRRC4B (11730491_at) / Fold change /veh LRRC4B (11730491_at) / RFU GIMAP4 (11747438_a_at) / Fold change /veh GIMAP4 (11747438_a_at) / RFU KRT8 (11758183_x_at) / Fold change /veh KRT8 (11758183_x_at) / RFU CNN1 (11734310_a_at) / Fold change /veh CNN1 (11734310_a_at) / RFU VPS37D (11726825_at) / Fold change /veh VPS37D (11726825_at) / RFU C10orf10 (11716522_x_at) / Fold change /veh C10orf10 (11716522_x_at) / RFU KIR2DL2 /// KIR2DL4 /// KIR2DL5A /// KIR2DL5B /// KIR2DS1 /// KIR2DS2 /// KIR2DS3 /// KIR2DS4 /// KIR3DL3 /// KIR3DL3 /// KIR3DS1 (11738374_at) / Fold change /veh KIR2DL2 /// KIR2DL4 /// KIR2DL5A /// KIR2DL5B /// KIR2DS1 /// KIR2DS2 /// KIR2DS3 /// KIR2DS4 /// KIR3DL3 /// KIR3DL3 /// KIR3DS1 (11738374_at) / RFU C1QL1 (11718748_at) / Fold change /veh C1QL1 (11718748_at) / RFU TMPRSS4 (11747572_a_at) / Fold change /veh TMPRSS4 (11747572_a_at) / RFU HAMP (11756126_x_at) / Fold change /veh HAMP (11756126_x_at) / RFU RNFT2 (11725882_a_at) / Fold change /veh RNFT2 (11725882_a_at) / RFU NR4A2 (11747474_a_at) / Fold change /veh NR4A2 (11747474_a_at) / RFU ABCC12 (11746883_a_at) / Fold change /veh ABCC12 (11746883_a_at) / RFU TMEM136 (11760407_x_at) / Fold change /veh TMEM136 (11760407_x_at) / RFU CLDN22 /// WWC2 (11732394_at) / Fold change /veh CLDN22 /// WWC2 (11732394_at) / RFU HLA-DPB1 (11760878_x_at) / Fold change /veh HLA-DPB1 (11760878_x_at) / RFU SPINT1 (11716480_a_at) / Fold change /veh SPINT1 (11716480_a_at) / RFU GAP43 (11754022_s_at) / Fold change /veh GAP43 (11754022_s_at) / RFU A4GNT (11735810_at) / Fold change /veh A4GNT (11735810_at) / RFU PRB3 (11715151_x_at) / Fold change /veh PRB3 (11715151_x_at) / RFU TUBB4B (11761932_at) / Fold change /veh TUBB4B (11761932_at) / RFU CAPN14 (11732068_a_at) / Fold change /veh CAPN14 (11732068_a_at) / RFU TMCC2 (11721928_a_at) / Fold change /veh TMCC2 (11721928_a_at) / RFU IRGQ (11745062_a_at) / Fold change /veh IRGQ (11745062_a_at) / RFU FAM174B (11720279_a_at) / Fold change /veh FAM174B (11720279_a_at) / RFU TMPRSS4 (11748680_a_at) / Fold change /veh TMPRSS4 (11748680_a_at) / RFU FAM212B (11763350_a_at) / Fold change /veh FAM212B (11763350_a_at) / RFU PLEKHG5 (11743358_a_at) / Fold change /veh PLEKHG5 (11743358_a_at) / RFU ZSCAN30 (11745921_a_at) / Fold change /veh ZSCAN30 (11745921_a_at) / RFU CMKLR1 (11741424_a_at) / Fold change /veh CMKLR1 (11741424_a_at) / RFU LOC101060620 /// MAPK8IP1 (11723275_at) / Fold change /veh LOC101060620 /// MAPK8IP1 (11723275_at) / RFU SPTSSB (11747773_x_at) / Fold change /veh SPTSSB (11747773_x_at) / RFU PRSS12 (11739890_at) / Fold change /veh PRSS12 (11739890_at) / RFU BIN1 (11741810_x_at) / Fold change /veh BIN1 (11741810_x_at) / RFU WNT11 (11732464_a_at) / Fold change /veh WNT11 (11732464_a_at) / RFU C10orf10 (11716521_a_at) / Fold change /veh C10orf10 (11716521_a_at) / RFU C5orf56 (11738089_at) / Fold change /veh C5orf56 (11738089_at) / RFU CYB561 (11721691_x_at) / Fold change /veh CYB561 (11721691_x_at) / RFU ANKRD19P (11752326_a_at) / Fold change /veh ANKRD19P (11752326_a_at) / RFU OR2T12 /// OR2T33 /// OR2T8 (11738714_s_at) / Fold change /veh OR2T12 /// OR2T33 /// OR2T8 (11738714_s_at) / RFU VCAN (11748164_a_at) / Fold change /veh VCAN (11748164_a_at) / RFU JSRP1 (11732532_at) / Fold change /veh JSRP1 (11732532_at) / RFU KRTAP10-11 (11738290_x_at) / Fold change /veh KRTAP10-11 (11738290_x_at) / RFU MYO3A (11730013_a_at) / Fold change /veh MYO3A (11730013_a_at) / RFU EBF3 (11725865_a_at) / Fold change /veh EBF3 (11725865_a_at) / RFU CAMK2N1 (11719241_x_at) / Fold change /veh CAMK2N1 (11719241_x_at) / RFU C5orf56 (11738088_a_at) / Fold change /veh C5orf56 (11738088_a_at) / RFU OLFML3 (11715873_a_at) / Fold change /veh OLFML3 (11715873_a_at) / RFU LOC100653217 /// NTM (11731650_a_at) / Fold change /veh LOC100653217 /// NTM (11731650_a_at) / RFU MAPK11 (11762145_a_at) / Fold change /veh MAPK11 (11762145_a_at) / RFU FIZ1 (11724087_x_at) / Fold change /veh FIZ1 (11724087_x_at) / RFU OASL (11726364_x_at) / Fold change /veh OASL (11726364_x_at) / RFU SOX15 (11748057_x_at) / Fold change /veh SOX15 (11748057_x_at) / RFU CD79A (11719716_a_at) / Fold change /veh CD79A (11719716_a_at) / RFU HIST1H1D (11736915_at) / Fold change /veh HIST1H1D (11736915_at) / RFU CASKIN2 (11723855_a_at) / Fold change /veh CASKIN2 (11723855_a_at) / RFU LOC730098 (11760151_x_at) / Fold change /veh LOC730098 (11760151_x_at) / RFU OR4N2 (11742367_at) / Fold change /veh OR4N2 (11742367_at) / RFU PRRT2 (11749266_a_at) / Fold change /veh PRRT2 (11749266_a_at) / RFU SNX32 (11753110_a_at) / Fold change /veh SNX32 (11753110_a_at) / RFU CDHR5 (11726645_a_at) / Fold change /veh CDHR5 (11726645_a_at) / RFU RCAN1 (11760418_a_at) / Fold change /veh RCAN1 (11760418_a_at) / RFU FAM167A (11723789_a_at) / Fold change /veh FAM167A (11723789_a_at) / RFU FAM26E (11764081_at) / Fold change /veh FAM26E (11764081_at) / RFU ISYNA1 (11749810_s_at) / Fold change /veh ISYNA1 (11749810_s_at) / RFU ACY1 (11761880_at) / Fold change /veh ACY1 (11761880_at) / RFU 11764098_at / Fold change /veh 11764098_at / RFU SAMD14 (11745864_x_at) / Fold change /veh SAMD14 (11745864_x_at) / RFU NPB (11741838_a_at) / Fold change /veh NPB (11741838_a_at) / RFU TMPRSS6 (11731388_a_at) / Fold change /veh TMPRSS6 (11731388_a_at) / RFU KRTAP10-2 (11738614_at) / Fold change /veh KRTAP10-2 (11738614_at) / RFU ARHGAP8 /// PRR5-ARHGAP8 (11727945_x_at) / Fold change /veh ARHGAP8 /// PRR5-ARHGAP8 (11727945_x_at) / RFU KRTAP5-7 /// NADSYN1 (11734609_at) / Fold change /veh KRTAP5-7 /// NADSYN1 (11734609_at) / RFU RASL12 (11751679_a_at) / Fold change /veh RASL12 (11751679_a_at) / RFU CDKN2B (11736163_a_at) / Fold change /veh CDKN2B (11736163_a_at) / RFU PRF1 (11729649_at) / Fold change /veh PRF1 (11729649_at) / RFU, ZNF638 /// ZNF638-IT1 / Fold change vs veh, ZNF638 /// ZNF638-IT1 / RFU, PANK3 / Fold change vs veh, PANK3 / RFU, SH3YL1 / Fold change vs veh, SH3YL1 / RFU, ZEB2 / Fold change vs veh, ZEB2 / RFU, NRIP1 / Fold change vs veh, NRIP1 / RFU, PTTG1IP / Fold change vs veh, PTTG1IP / RFU, CAPN2 / Fold change vs veh, CAPN2 / RFU, MED14 / Fold change vs veh, MED14 / RFU, SNORA58 / Fold change vs veh, SNORA58 / RFU, C1orf63 / Fold change vs veh, C1orf63 / RFU, LRRFIP1 / Fold change vs veh, LRRFIP1 / RFU, NDUFAF7 / Fold change vs veh, NDUFAF7 / RFU, SLC12A2 / Fold change vs veh, SLC12A2 / RFU, IBTK / Fold change vs veh, IBTK / RFU, ESF1 / Fold change vs veh, ESF1 / Fold change vs veh, TMEM50B / RFU, TAOK1 / Fold change vs veh, TAOK1 / RFU, ACBD3 / Fold change vs veh, ACBD3 / RFU, TMA16 / Fold change vs veh, TMA16 / RFU, RWDD3 / Fold change vs veh, RWDD3 / RFU, BCAT1 / Fold change vs veh, BCAT1 / RFU, EDEM3 / Fold change vs veh, EDEM3 / RFU, TMEM33 / Fold change vs veh, TMEM33 / RFU, WDR75 / Fold change vs veh, WDR75 / RFU, AHCTF1 / Fold change vs veh, AHCTF1 / RFU, TFRC / Fold change vs veh, TFRC / RFU, ZDHHC17 / Fold change vs veh, ZDHHC17 / RFU, NOM1 / Fold change vs veh, NOM1 / RFU, ARL8B / Fold change vs veh, ARL8B / RFU, ZBTB11 / Fold change vs veh, ZBTB11 / RFU, TAMM41 / Fold change vs veh, TAMM41 / RFU, KIAA1704 /// LOC100996395 / Fold change vs veh, KIAA1704 /// LOC100996395 / RFU, ING1 / Fold change vs veh, ING1 / RFU, TRMT61B / Fold change vs veh, TRMT61B / RFU, FUBP3 / Fold change vs veh, FUBP3 / RFU, TP53 / Fold change vs veh, TP53 / RFU, TNKS2 / Fold change vs veh, TNKS2 / RFU, ZFP14 / Fold change vs veh, ZFP14 / RFU, ACTR2 / Fold change vs veh, ACTR2 / RFU, PPP3R1 / Fold change vs veh, PPP3R1 / RFU, PIK3R1 / Fold change vs veh, PIK3R1 / RFU, HNRNPA1 / Fold change vs veh, HNRNPA1 / RFU, RNF170 / Fold change vs veh, RNF170 / RFU, ZNF28 / Fold change vs veh, ZNF28 / RFU, RNGTT / Fold change vs veh, RNGTT / RFU, OGT / Fold change vs veh, OGT / RFU, BRD1 / Fold change vs veh, BRD1 / RFU, MARS / Fold change vs veh, MARS / RFU, ZNF655 / Fold change vs veh, ZNF655 / RFU, FAHD1 / Fold change vs veh, FAHD1 / RFU, BDP1 / Fold change vs veh, BDP1 / RFU, LRRCC1 / Fold change vs veh, LRRCC1 / RFU, ARID1A / Fold change vs veh, ARID1A / RFU, ZNF146 / Fold change vs veh, ZNF146 / RFU, ZNF330 / Fold change vs veh, ZNF330 / RFU, GPN3 / Fold change vs veh, GPN3 / RFU, C9orf123 / Fold change vs veh, C9orf123 / RFU, N4BP2L2 / Fold change vs veh, N4BP2L2 / RFU, ARFIP1 / Fold change vs veh, ARFIP1 / RFU, FAM179B / Fold change vs veh, FAM179B / RFU, BCL10 / Fold change vs veh, BCL10 / RFU, UHRF1BP1L / Fold change vs veh, UHRF1BP1L / RFU, BET1 / Fold change vs veh, BET1 / RFU, CNOT2 / Fold change vs veh, CNOT2 / RFU, ZNF268 / Fold change vs veh, ZNF268 / Fold change vs veh, ZNF507 / RFU, DGCR2 / Fold change vs veh, DGCR2 / RFU, WDSUB1 / Fold change vs veh, WDSUB1 / Fold change vs veh, HSP90B1 /// MIR3652 / RFU, ADSS / Fold change vs veh, ADSS / RFU, GK / Fold change vs veh, GK / RFU, ZNF148 / Fold change vs veh, ZNF148 / RFU, TAF9 / Fold change vs veh, TAF9 / RFU, SLC1A5 / Fold change vs veh, SLC1A5 / RFU, SLMO2 / Fold change vs veh, SLMO2 / RFU, ABCC4 / Fold change vs veh, ABCC4 / RFU, LOC101060439 /// RAP1B / Fold change vs veh, LOC101060439 /// RAP1B / RFU, RFX7 / Fold change vs veh, RFX7 / RFU, GTPBP10 / Fold change vs veh, GTPBP10 / RFU, CNEP1R1 / Fold change vs veh, CNEP1R1 / RFU, BIVM-ERCC5 /// ERCC5 / Fold change vs veh, BIVM-ERCC5 /// ERCC5 / RFU, ILF3 / Fold change vs veh, ILF3 / RFU 11762660_at / Fold change /veh 11762660_at / RFU VCAN (11757783_s_at) / Fold change /veh VCAN (11757783_s_at) / RFU DDX43 (11728927_at) / Fold change /veh DDX43 (11728927_at) / RFU KRT8 (11758188_x_at) / Fold change /veh KRT8 (11758188_x_at) / RFU NKD1 (11759106_at) / Fold change /veh NKD1 (11759106_at) / RFU SRD5A1 (11742802_a_at) / Fold change /veh SRD5A1 (11742802_a_at) / RFU TPSAB1 /// TPSB2 (11721975_s_at) / Fold change /veh TPSAB1 /// TPSB2 (11721975_s_at) / RFU GSTM3 (11746129_a_at) / Fold change /veh GSTM3 (11746129_a_at) / RFU IL23R (11737362_x_at) / Fold change /veh IL23R (11737362_x_at) / RFU TMEM51 (11727254_a_at) / Fold change /veh TMEM51 (11727254_a_at) / RFU PIWIL2 (11732686_x_at) / Fold change /veh PIWIL2 (11732686_x_at) / RFU ORM1 (11744905_x_at) / Fold change /veh ORM1 (11744905_x_at) / RFU CCDC152 (11743942_at) / Fold change /veh CCDC152 (11743942_at) / RFU ECM1 (11717891_a_at) / Fold change /veh ECM1 (11717891_a_at) / RFU IL23R (11748794_a_at) / Fold change /veh IL23R (11748794_a_at) / RFU TNFAIP8L3 (11732012_x_at) / Fold change /veh TNFAIP8L3 (11732012_x_at) / RFU MBOAT4 (11741988_at) / Fold change /veh MBOAT4 (11741988_at) / RFU 11764193_at / Fold change /veh 11764193_at / RFU TMEM53 (11763286_at) / Fold change /veh TMEM53 (11763286_at) / RFU MAGEB2 (11727129_at) / Fold change /veh MAGEB2 (11727129_at) / RFU TMEM200A (11744735_a_at) / Fold change /veh TMEM200A (11744735_a_at) / RFU CCDC152 (11751479_a_at) / Fold change /veh CCDC152 (11751479_a_at) / RFU FAM211A (11726209_a_at) / Fold change /veh FAM211A (11726209_a_at) / RFU RGS16 (11746705_a_at) / Fold change /veh RGS16 (11746705_a_at) / RFU VCAN (11755009_s_at) / Fold change /veh VCAN (11755009_s_at) / RFU RHOB (11743442_s_at) / Fold change /veh RHOB (11743442_s_at) / RFU RGS16 (11720943_a_at) / Fold change /veh RGS16 (11720943_a_at) / RFU RGS16 (11720944_at) / Fold change /veh RGS16 (11720944_at) / RFU, VPS4B / Fold change vs veh, VPS4B / RFU, CREB1 / Fold change vs veh, CREB1 / RFU, DNAJC13 / Fold change vs veh, DNAJC13 / RFU, GNAQ / Fold change vs veh, GNAQ / RFU, CDK5R1 / Fold change vs veh, CDK5R1 / RFU, ZRANB3 / Fold change vs veh, ZRANB3 / RFU, CUL4A / Fold change vs veh, CUL4A / RFU, CCNY / Fold change vs veh, CCNY / RFU, UFL1 / Fold change vs veh, UFL1 / RFU, COG3 / Fold change vs veh, COG3 / RFU, DIAPH2 / Fold change vs veh, DIAPH2 / RFU, SKA2 / Fold change vs veh, SKA2 / RFU, AFF3 / Fold change vs veh, AFF3 / RFU, LMF1 / Fold change vs veh, LMF1 / RFU, IPO11 / Fold change vs veh, IPO11 / RFU, DFFB / Fold change vs veh, DFFB / RFU, FOXP1 / Fold change vs veh, FOXP1 / RFU, CARD8 / Fold change vs veh, CARD8 / RFU, STRN3 / Fold change vs veh, STRN3 / RFU, ADK / Fold change vs veh, ADK / RFU, RASSF2 / Fold change vs veh, RASSF2 / RFU, WIPF1 / Fold change vs veh, WIPF1 / RFU, LARP1B / Fold change vs veh, LARP1B / RFU, RASA1 / Fold change vs veh, RASA1 / RFU, RB1 / Fold change vs veh, RB1 / RFU, PPFIA1 / Fold change vs veh, PPFIA1 / RFU, MAT2A / Fold change vs veh, MAT2A / RFU, CCT5 / Fold change vs veh, CCT5 / RFU, WDR92 / Fold change vs veh, WDR92 / RFU, CUX1 / Fold change vs veh, CUX1 / RFU, TTC7A / Fold change vs veh, TTC7A / RFU, TMEM135 / Fold change vs veh, TMEM135 / RFU, DEPTOR / Fold change vs veh, DEPTOR / RFU, CPM / Fold change vs veh, CPM / RFU, DNAJB6 / Fold change vs veh, DNAJB6 / RFU, CACNA2D3 / Fold change vs veh, CACNA2D3 / RFU, DTX4 / Fold change vs veh, DTX4 / RFU, TFCP2 / Fold change vs veh, TFCP2 / RFU, GMCL1 /// GMCL1P1 / Fold change vs veh, GMCL1 /// GMCL1P1 / RFU, AEBP2 / Fold change vs veh, AEBP2 / RFU, SNHG1 /// SNORD22 /// SNORD25 /// SNORD26 /// SNORD27 /// SNORD28 /// SNORD29 /// SNORD31 / Fold change vs veh, SNHG1 /// SNORD22 /// SNORD25 /// SNORD26 /// SNORD27 /// SNORD28 /// SNORD29 /// SNORD31 / Fold change (Aza/veh), C12orf56 (ProbeSet 11735607_a_at) / Fold change (ACY-1035/veh), C12orf56 (ProbeSet 11735607_a_at) / Fold change (Aza/veh), FGFR1OP (ProbeSet 11751329_s_at) / Fold change (ACY-1035/veh), FGFR1OP (ProbeSet 11751329_s_at) / Fold change (Aza/veh), VPS36 (ProbeSet 11739960_a_at) / Fold change (ACY-1035/veh), VPS36 (ProbeSet 11739960_a_at) / RFU SYPL1 (11715823_x_at) / Fold change /veh SYPL1 (11715823_x_at) / RFU IGFBP7 (11715501_s_at) / Fold change /veh IGFBP7 (11715501_s_at) / RFU REEP3 (11722064_at) / Fold change /veh REEP3 (11722064_at) / RFU IGLL1 (11728026_x_at) / Fold change /veh IGLL1 (11728026_x_at): dose or concentration left out as unconfirmed", "details": "MV-4-11 cells, 48 hours", "data": [{"compound": "Nc1ccc(-c2cccs2)cc1NC(=O)c1ccc2c(c1)cc(C1CC1)n2CCN1CCOCC1", "note": "[ACY-1035]", "values": [{"measurement": "Fold change /veh OLFML3 (11715873_a_at)", "value": 1.17}]}]}
